Reference: patent publication US6156798A, “Cyclobutyl-aryloxyarylsulfonylamino hydroxamic acid derivatives” (Pfizer Inc, priority 1999, dated 2000)

Assays:
[1] = target: T1, MMP-1 (Homo sapiens, UniProt P03956); assay: Inhibition of Human Collagenase (MMP-1); assay type: biochemical; conditions: human recombinant collagenase, fluorogenic substrate 10 μM, room temperature
T1 sequence (P03956 100-469): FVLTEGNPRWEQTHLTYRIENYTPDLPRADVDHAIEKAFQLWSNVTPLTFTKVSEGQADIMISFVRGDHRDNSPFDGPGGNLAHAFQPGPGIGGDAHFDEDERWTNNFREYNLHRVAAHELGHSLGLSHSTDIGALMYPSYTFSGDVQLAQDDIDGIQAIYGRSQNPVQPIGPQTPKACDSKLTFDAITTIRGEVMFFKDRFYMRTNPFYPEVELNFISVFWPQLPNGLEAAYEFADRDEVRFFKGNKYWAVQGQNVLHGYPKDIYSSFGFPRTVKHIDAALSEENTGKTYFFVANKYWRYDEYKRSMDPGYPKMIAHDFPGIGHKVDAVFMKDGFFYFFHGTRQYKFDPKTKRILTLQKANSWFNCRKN
Procedure: Biological Assay Inhibition of Human Collacienase (MMP-1)
Human recombinant collagenase is activated with trypsin using the following ratio: 10 μg trypsin per 100 μg of collagenase. The trypsin and collagenase are incubated at room temperature for 10 minutes then a five fold excess (50 μg/10 μg trypsin) of soybean trypsin inhibitor is added.
10 mM stock solutions of inhibitors are made up in dimethyl sulfoxide and then dilute using the following Scheme:
Twenty-five microliters of each concentration is then added in triplicate to appropriate wells of a 96 well microfluor plate. The final concentration of inhibitor will be a 1:4 dilution after addition of enzyme and substrate. Positive controls (enzyme, no inhibitor) are set up in wells D1-D6 and blanks (no enzyme, no inhibitors) are set in wells D7-D12.
Collagenase is diluted to 400 ng/ml and 25 μl is then added to appropriate wells of the microfluor plate. Final concentration of collagenase in the assay is 100 ng/ml. […]
Fluorescence readings (360 nm excitation, 460 nm emission) were taken at time 0 and then at 20 minute intervals. […]
Fluorescence vs time is then plotted for both the blank and collagenase containing samples (data from triplicate determinations is averaged). […] Data is plotted as inhibitor concentration vs % control (inhibitor fluorescence divided by fluorescence of collagenase alone×100). […]

[2] = target: MMP-13 (Homo sapiens, UniProt P45452); assay: Inhibition of MMP-13; assay type: biochemical; conditions: human recombinant MMP-13, fluorogenic substrate 10 μM
Procedure: Human recombinant MMP-13 is activated with 2 mM APMA (p-aminophenyl mercuric acetate) for 1.5 hours, at 37° C. and is diluted to […] in assay buffer (50 mM Tris, pH 7.5, 200 mM sodium chloride, 5 mM calcium chloride, 20 μM zinc chloride, 0.02% brij). Twenty-five microliters of diluted enzyme is added per well of a 96 well microfluor plate. The enzyme is then diluted in a 1:4 ratio in the assay by the addition of inhibitor and substrate to give a final concentration in the assay of […].
10 mM stock solutions of inhibitors are made up in dimethyl sulfoxide and then diluted in assay buffer as per the inhibitor dilution scheme for inhibition of human collagenase (MMP-1): Twenty-five microliters of each concentration is added in triplicate to the microfluor plate. The final concentrations in the assay are 30 μM, 3 μM, 0.3 μM, and 0.03 μM.
Substrate (Dnp-Pro-Cha-Gly-Cys(Me)-His-Ala-Lys(NMA)-NH2) is prepared as for inhibition of human collagenase (MMP-1) and […] is added to each well to give a final assay concentration of 10 μM. Fluorescence readings (360 nm excitation; 450 emission) are taken at time 0 and every 5 minutes for 1 hour.
Positive controls consist of enzyme and substrate with no inhibitor and blanks consist of substrate only.
IC50 's are determined as per inhibition of human collagenase (MMP-1). […]

Structure (SMILES) | IC50 [1] [nM] | IC50 [2] [nM]
O=C(O)CCN(C1(C(=O)NO)CCC1)S(=O)(=O)c1ccc(Oc2ccc(F)cc2)cc1 [1 (R^1 = H), 3-[[4-(4-Fluorophenoxy)phenylsulfonyl]-1[(N-hydroxycarbamoyl)cyclobutyl]amino]propionic acid] | 90 | 0.6
CCOC(=O)CCN(C1(C(=O)NO)CCC1)S(=O)(=O)c1ccc(Oc2ccc(F)cc2)cc1 [1 (R^1 = ethyl), Ethyl 3-[[4-(4-fluorophenoxy)phenylsulfonyl]-1-[(N-hydroxycarbamoyl)cyclobutyl]amino]propionate] | 18 | 0.6
